Laboratory results as given in patent publication US20090048221A1, “Conjugates with Anti-Inflammatory Activity” (priority 2004, published 2009).
Structures can show the parent of a compound that is named as a salt.

Columns and labels:
[1] = test system: Male Balb/cJ mice; experiment: Lung neutrophilia induced by bacterial lipopolysaccharide; assay type: in vivo; details: 24 hours after LPS
Method: Male Balb/cJ mice (Iffa Credo, Lyon, France) weighing 25 g were randomly grouped in three groups: test, positive and negative control (10 animals per each group). Vehicle, beclomethasone dipropionate or test substance were applied intranasally (i.n.) to Balb/cJ mice. Thirty minutes later, 60 μl of bacterial lipopolysaccharide (LPS), dissolved in PBS at the concentration of 167 μg/ml, was given i.n. to all groups except the negative control group, which received the same volume of PBS. Animals were sacrificed after 24 hours and bronchoalveolar lavage fluid (BALF) collected for determination of neutrophils and […] and TNF-α concentration. Cytokines were measured using sandwich ELISA (R&D Systems). Statistical analysis was performed using GraphPad prism software, one-way ANOVA Turkey Kramer Multiple comparison test.

[2] = target: T1, human glucocorticoid receptor (Homo sapiens, UniProt P04150); experiment: Assay of binding to human glucocorticoid receptor ([3H]dexamethasone displacement in transfected COS-1 cells); details: 24 nM [3H]dexamethasone, COS-1 cells transfected with human GR alpha
T1 construct: expressed in transfected cells; host or cells: COS-1 cells, transient transfection with pcDNA3.1 Hygro(+) carrying the cloned cDNA
T1 sequence (P04150 1-777): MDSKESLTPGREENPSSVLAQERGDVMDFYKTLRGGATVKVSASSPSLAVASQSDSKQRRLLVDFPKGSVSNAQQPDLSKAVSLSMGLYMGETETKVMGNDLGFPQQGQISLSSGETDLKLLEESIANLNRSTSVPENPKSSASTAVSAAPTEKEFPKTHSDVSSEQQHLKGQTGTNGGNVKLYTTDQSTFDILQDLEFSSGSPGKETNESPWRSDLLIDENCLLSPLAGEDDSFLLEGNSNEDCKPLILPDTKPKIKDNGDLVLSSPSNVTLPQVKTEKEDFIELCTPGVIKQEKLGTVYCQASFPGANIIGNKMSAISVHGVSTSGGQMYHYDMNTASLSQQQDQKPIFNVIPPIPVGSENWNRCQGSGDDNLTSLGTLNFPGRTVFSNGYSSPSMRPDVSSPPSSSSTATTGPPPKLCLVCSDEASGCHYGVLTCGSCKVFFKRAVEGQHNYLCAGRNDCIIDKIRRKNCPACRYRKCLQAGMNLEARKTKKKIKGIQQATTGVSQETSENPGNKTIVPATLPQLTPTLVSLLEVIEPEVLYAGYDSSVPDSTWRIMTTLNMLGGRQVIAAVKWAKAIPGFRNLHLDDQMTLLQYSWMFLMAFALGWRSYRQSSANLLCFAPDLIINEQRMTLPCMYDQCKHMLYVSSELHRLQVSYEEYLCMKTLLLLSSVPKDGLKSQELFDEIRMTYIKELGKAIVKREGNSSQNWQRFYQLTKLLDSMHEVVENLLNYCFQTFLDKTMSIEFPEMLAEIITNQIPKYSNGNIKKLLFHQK
Method: The cells were incubated at 37° C. in an atmosphere with 5% CO2 and after 5 hours the same volume of 20% FBS/DMEM was added.

[3] = test system: Mouse T-cell hybridoma 13; experiment: Inhibition of mouse T-cell hybridoma 13 proliferation as a result of apoptosis induction; assay type: cell-based; details: for IC50: Mus musculus, T-cell, [3H]thymidine incorporation, overnight incubation; for inhibition of T-cell hybridoma 13 proliferation: in the concentrations from 1 μM to 1 nM
Method: Triplicates of test steroid dilution in RPMI medium (Institute of Immunology, Zagreb) with 10% FBS were added to a 96 well plate. […] Then 1 μCi of [^3H]thymidine (Pharmacia, Piscataway, N.J. USA) was added and the mixture was incubated for an additional 3 hours. The cells were harvested by applying a vacuum over GF/C filter (Packard). Onto each well, 30 μl of Microscynt O scintillation liquid (Packard) was added and the incorporated radioactivity was measured on a β-scintillation counter (Packard).

[4] = test system: Sprague-Dawley rats; experiment: Subcutaneous sponge implantation model; details: seven days after implantation; for thymus weight: vs vehicle
Method: In this model, local inflammation was followed by determination of newly formed granulation tissue together with determination of compound effects on plasma corticosterone concentration and thymus weight in Sprague-Dawley rats. Sprague-Dawley rats were purchased from Iffa Credo, Lyon, France and 10 weeks old male rats were used. […] All substances were dissolved in ethanol, applied onto sterile sponges and allowed to dry in the laminar flow cabinet prior to the sponge implantation.
On day 0, animals were anaesthetized by inhalation of Isoflurane (Abbott Laboratories Ltd., USA) and 5% oxygen, delivered in an anesthesia induction chamber (Stoelting Co., USA). Gas scavenging was provided using the Fluovac 240V system (International Market Supply, England). Anesthesia was maintained using a gas anesthesia mask (Stoelting Co., USA) and pedal reflex response where checked at intervals. The implantation area was shaved and subsequently disinfected using Pursept solution (MERZ Hygiene, Germany). Using strict aseptic procedure, two 1 cm long skin incisions were made just below the left and right regio scapularis. Small subcutaneous pockets were made on the left side of the left wound and the right side of the right wound using blunt forceps. In all animals, sponges with vehicle or dissolved substance applied were inserted on the left side and non-treated ones on the right side. Skin was closed with sutures and disinfected with Pursept solution. On day 7 rats were anaesthetized by intraperitoneal administration of Thiopental (PLIVA; 0.5 mL/100g body weight) and exanguinated by puncturing A. carolis com.
Blood was collected into Vacutainer tubes (Becton Dickinson, USA) for plasma corticosterone concentration analysis. Corticosterone levels in plasma were measured using R&D Systems kit for quantitative determination of corticosterone. Competitive ELISA was performed with alkaline phosphatase conjugated corticosterone as competitor. Samples were incubated for 2 hours, and after successive washing, substrate was added. After 1 h absorbance was measured on 405 mm. OD values are inversely correlated with increasing corticosterone concentrations. Corticosterone concentrations were calculated using calibration curve generated with corticosterone standard concentration dilutions. For assessing the thymus weight, thymuses were extirpated and weighed using the analytical balance. The reduction of thymus size in treated animals was presented as a percentage of that in control rats (0%).
For assessing the newly formed granulation tissue, sponges were carefully excised and each sponge perforated with sterile surgical sewing suture to keep it on the top of the Falcon tube during centrifugation. Tubes were centrifuged (1000 rpm per 10 minutes). […]

[5] = test system: interleukin 4, interleukin 5 and interferon γ production; experiment: Inhibition of interleukin 4, interleukin 5 and interferon γ production by concanavalin-A induced murine splenocytes; assay type: cell-based, Balb/C mice; details: in concentrations from 1 μM to 1 nM; concanavalin-A stimulated splenocytes, 72 hours
Excerpt: Splenocytes were isolated from the spleen of Balb/C mice sacrificed by thiopental injection (Pliva, Zagreb, Croatia). Spleens were chopped and mononuclear cells separated on Histopaque 1083 (Sigma Diagnostics, St. Louis, Mo. USA Cat. No 1083-1). Into a 96-well plate, compounds diluted in RPMI medium (Institute of Immunology, Zagreb, Croatia) were pipetted with 10% foetal bovine serum (Biowhittaker) and cells (200000 per well) in the same medium, and concanavalin-A stimulator (Sigma 2002-2003 cat. No C5275) at a final concentration of […] were added. The positive control, in place of the dilution of compounds, consisted of RPMI medium with 10% foetal bovine serum and concanavalin-A in the same concentration of. Cells were incubated for 72 hours at 37° C., 95% humidity and in an atmosphere with 5% CO2. Until determination of cytokines, the cells were frozen at −70° C.
Cytokines interleukin 4, interleukin 5 and interferon γ were determined by the specific ELISA method, according to manufacturer's recommendations (R&D).
Inhibition (as percentage) was calculated using the following formula:
% inh=(1−[concentration of cytokines in sample]/[concentration of cytokines in positive control])*100

[6] = test system: Male Balb/C mice; experiment: Model of lung eosinophilia in mice (OVA sensitised and challenged)
Method: Male Balb/C mice with a body weight of 20-25 g were randomly divided into groups, and sensitised by an i.p. injection of ovalbumin (OVA, Sigma, St. Louis, Mo. USA) on day zero and day fourteen. On the twentieth day, the mice were subjected to a challenge test by i.n. (intranasal) application of OVA (positive control or test groups) or PBS (negative control). 48 hours after i.n. application of OVA, the animals were anaesthetized and the lungs were rinsed with 1 mL of PBS. The cells were separated on Cytospin 3 cytocentrifuge (Shandon). The cells were stained in Diff-Quick (Dade) and the percentage of eosinophils was determined by differential counting of at least 100 cells.
Beclomethasone (Pliva d.d.) were used as a standard substances, with positive and negative control. The compounds were administered daily i.n. or i.p. in different doses 2 days before the challenge test and up to the completion of the test.
Corticosterone levels were determined in plasma from each animal using a kit for determination of corticosterone (R&D systems).

[7] = test system: Male Sprague-Dawley rats; experiment: Croton oil induced ear edema in male Sprague-Dawley rats; assay type: in vivo; details: applied topically once, n=8
Method: Test and reference substances, as well as vehicle (acetone), were administered topically to the inner and the outer surface of the right ear of each animal with an automatic pipette, in a volume of 60 μL/ear (30 μL/surface), thirty minutes before the croton oil challenge. Test substances were administered in the doses of 2 or 5 mg/ear/60 μL of acetone. Dexamethasone was administered in the dose of 1 mg/ear/60 μL of acetone. Thirty minutes later, 20% croton oil emulsion in acetone was applied topically to the inner and the outer surface of the right ear of each animal with an automatic pipette, in a volume of 60 μL/ear (30 μL/surface). Five hours after the challenge, animals were euthanized by asphyxiation in 100% CO2 atmosphere. For assessing the auricular edema, 8 mm discs were cut out of left and right auricular pinna and weighed. The degree of edema was calculated by subtracting the weight of 8 mm disc of the untreated ear from that of the treated contralateral ear.

[8] = 4 mg/kg i.n., vs positive control

Question: Which results are given for `CCC(=O)OCC(=O)[C@@]1(OC(=O)CC)[C@@H](C)C[C@H]2[C@@H]3CCC4=CC(=O)C=C[C@]4(C)[C@@]3(Cl)[C@@H](O)C[C@@]21C` [Beclometbasone dipropionate, beclomethasone dipropionate, reference compound]?
Answer: concentration of IL-6 in BALF ([1]; 2 mg/kg i.n.): non-significantly decreased; concentration of TNF-α in BALF ([1]; 2 mg/kg i.n.): non-significantly decreased; neutrophils in BALF ([1]; 2 mg/kg i.n.): non-significantly decreased

Question: What does the source list for `CC[C@H]1OC(=O)[C@H](C)[C@@H](O)[C@H](C)[C@@H](O)[C@](C)(O)C[C@@H](C)CN(CCCNCCC(=O)O[C@]2(C(=O)OC)[C@H](C)CC3C4CCC5=CC(=O)C=C[C@]5(C)[C@@]4(F)[C@@H](O)C[C@@]32C)[C@H](C)[C@@H](O)[C@]1(C)O` (stereo partly drawn) [Compound 7]?
Answer: affinity for the glucocorticoid receptor (displacement of radioactive dexamethasone) [2]: have affinity for the glucocorticoid receptor; IC50 [3]: 464 nM; inhibition of T-cell hybridoma 13 proliferation [3]: exhibit inhibition

Question: Which results are given for `CC[C@H]1OC(=O)[C@H](C)[C@@H](O)[C@H](C)[C@@H](O)[C@](C)(O)C[C@@H](C)CN(CCCNCCC(=O)O[C@]2(C(=O)OC)[C@H](C)CC3C4C[C@H](F)C5=CC(=O)C=C[C@]5(C)C4[C@@H](O)C[C@@]32C)[C@H](C)[C@@H](O)[C@]1(C)O` (stereo partly drawn) [Compound 9]?
Answer: IC50 [3]: 303 nM; inhibition of T-cell hybridoma 13 proliferation [3]: exhibit inhibition

Question: Which “concentration of IL-6 in BALF” value [1, 8] does the source give for `CC[C@H]1OC(=O)[C@H](C)[C@@H](O)[C@H](C)[C@@H](O)[C@](C)(O)C[C@@H](C)CN(CCCNCCC(=O)O[C@]2(C(=O)OC)[C@H](C)CC3C4C[C@H](F)C5=CC(=O)C=C[C@]5(C)[C@@]4(F)[C@@H](O)C[C@@]32C)[C@H](C)[C@@H](O)[C@]1(C)O` (stereo partly drawn) [Compound 10 phosphate salt] here?
Answer: statistically significantly decreased

Question: And the “concentration of TNF-α in BALF” value [1, 8]?
Answer: statistically significantly decreased

Question: And the “neutrophils in BALF” value [1, 8]?
Answer: statistically significantly decreased

Question: How did the “affinity for the glucocorticoid receptor (displacement of radioactive dexamethasone)” value [2] turn out when `CC[C@H]1OC(=O)[C@H](C)[C@@H](O)[C@H](C)[C@@H](O)[C@](C)(O)C[C@@H](C)CN(CCCNCCC(=O)O[C@]2(C(=O)OC)[C@H](C)CC3C4C[C@H](F)C5=CC(=O)C=C[C@]5(C)[C@@]4(F)[C@@H](O)C[C@@]32C)[C@H](C)[C@@H](O)[C@]1(C)O` (stereo partly drawn) [Compound 10] was run?
Answer: have affinity for the glucocorticoid receptor

Question: And the granulation tissue formation ([4]; 10 mg/sponge, vs non-treated and vehicle sponges)?
Answer: significantly reduced

Question: And the IC50 [3]?
Answer: 41.7 nM

Question: What about the “inhibition of T-cell hybridoma 13 proliferation” value [3] of the same compound?
Answer: exhibit inhibition

Question: What about the “inhibition of the production of cytokines” value [5] of the same compound?
Answer: inhibits the production of cytokines

Question: And the “number of eosinophils in the lung rinse with respect to positive control” value ([6]; t-test, p<0.05)?
Answer: statistically significantly reduced

Question: What about the “reduction of ear edema” value ([7]; 2 mg/ear) of the same compound?
Answer: 51.58%

Question: And the “reduction of ear edema” value ([7]; 5 mg/ear)?
Answer: 85.53%

Question: How did the IC50 [3] turn out when `CC[C@H]1OC(=O)[C@H](C)[C@@H](O)[C@H](C)[C@@H](O)[C@](C)(O)C[C@@H](C)CN(CCCNCCC(=O)O[C@]2(C(=O)OC)CCC3C4C[C@H](C)C5=CC(=O)C=C[C@]5(C)C4[C@@H](O)C[C@@]32C)[C@H](C)[C@@H](O)[C@]1(C)O` (stereo partly drawn) [Compound 13] was run?
Answer: 287 nM

Question: How did the IC50 [3] turn out when `CC[C@H]1OC(=O)[C@H](C)[C@@H](O)[C@H](C)[C@@H](O)[C@](C)(O)C[C@@H](C)CN(CCCNC(=O)CCCCCCCCCCCNCCC(=O)O[C@]2(C(=O)OC)[C@H](C)CC3C4C[C@H](F)C5=CC(=O)C=C[C@]5(C)[C@@]4(F)[C@@H](O)C[C@@]32C)[C@H](C)[C@@H](O)[C@]1(C)O` (stereo partly drawn) [Compound 14] was run?
Answer: 455 nM

Question: With `CCOC(=O)[C@@]1(OC(=O)CCNCCCN2C[C@H](C)C[C@@](C)(O)[C@H](O)[C@@H](C)[C@H](O)[C@@H](C)C(=O)O[C@H](CC)[C@@](C)(O)[C@H](O)[C@H]2C)[C@H](C)CC2C3C[C@H](F)C4=CC(=O)C=C[C@]4(C)[C@@]3(F)[C@@H](O)C[C@@]21C` (stereo partly drawn) [Compound 16] as the compound, how does the IC50 [3] read?
Answer: 112 nM

Question: For `CC[C@H]1OC(=O)[C@H](C)[C@@H](O)[C@H](C)[C@@H](O)[C@](C)(O)C[C@@H](C)CN(CCCCNCCC(=O)O[C@]2(C(=O)OC)[C@H](C)CC3C4C[C@H](F)C5=CC(=O)C=C[C@]5(C)[C@@]4(F)[C@@H](O)C[C@@]32C)[C@H](C)[C@@H](O)[C@]1(C)O` (stereo partly drawn) [Compound 17], which IC50 [3] is on record?
Answer: 41.6 nM

Question: What about the “reduction of ear edema” value ([7]; 5 mg/ear) of the same compound?
Answer: 76.59%

Question: `CC[C@H]1OC(=O)[C@H](C)[C@@H](O)[C@H](C)[C@@H](O)[C@](C)(O)C[C@@H](C)CN(CCCCCCNCCC(=O)O[C@]2(C(=O)OC)[C@H](C)CC3C4C[C@H](F)C5=CC(=O)C=C[C@]5(C)[C@@]4(F)[C@@H](O)C[C@@]32C)[C@H](C)[C@@H](O)[C@]1(C)O` (stereo partly drawn) [Compound 18] was tested. Which IC50 [3] did it give?
Answer: 474 nM

Question: With `C[C@@H]1C[C@H]2[C@@H]3CCC4=CC(=O)C=C[C@]4(C)[C@@]3(F)[C@@H](O)C[C@]2(C)[C@@]1(O)C(=O)CO` [Dexamethasone, reference compound] as the compound, how does the “reduction of ear edema” value ([7]; 1 mg/ear) read?
Answer: 85.77%

Question: How did the thymus weight ([4]; 2 mg/sponge) turn out when `C[C@H]1C[C@H]2[C@@H]3CCC4=CC(=O)C=C[C@]4(C)[C@@]3(Cl)[C@@H](O)C[C@]2(C)[C@@]1(O)C(=O)CO` [beclomethasone] was run?
Answer: significantly decreased

Question: What about the thymus weight ([4]; 10 mg/sponge) of the same compound?
Answer: significantly decreased

Question: And the plasma corticosterone concentration ([4]; 10 mg/sponge, vs vehicle control)?
Answer: significantly decreased

Question: And the plasma corticosterone levels ([6]; 1 mg/kg intranasally, mice)?
Answer: significantly suppressed
